Data as given in patent publication US8829193B2, “PIM kinase inhibitors and methods of their use” (Novartis AG, priority 2008, dated 2014).

Legend:
Pim1 kinase = Pim1 kinase (Homo sapiens (Human), UniProt P11309); test: Pim1 ATP depletion assay; format: biochemical; conditions: 20 μM ATP, 40 μM BAD peptide, 2.5 nM PIM1
Experimental: (§1) The activity of PIM1 is measured using a luciferase-luciferin based ATP detection reagent to quantify ATP depletion resulting from kinase-catalyzed phosphoryl transfer to a peptide substrate. Compounds to be tested are dissolved in 100% DMSO and directly distributed into white 384-well plates at 0.5 μl per well. […] After 15 minutes, 10 μl of 40 μM ATP in assay buffer is added. Final assay concentrations are 2.5 nM PIM1, 20 μM ATP, 40 μM BAD peptide and 2.5% DMSO. The reaction is performed until approximately 50% of the ATP is depleted, then stopped with the addition of 20 μl KinaseGlo Plus (Promega Corporation) solution. The stopped reaction is incubated for 10 minutes and the remaining ATP detected via luminescence on the Victor2 (Perkin Elmer).

Pim2 kinase = Pim2 kinase (Homo sapiens (Human), UniProt Q9P1W9); test: Pim2 ATP depletion assay; format: biochemical; conditions: 4 μM ATP, 10 μM BAD peptide, 5 nM PIM2
Experimental: as §1, with “of PIM2” for “of PIM1”, “0.5 piper” for “0.5 μl per”, “of 8” for “of 40”, “are 5” for “are 2.5”, “nM PIM2, 4” for “nM PIM1, 20”, “ATP, 10” for “ATP, 40”

Pim3 kinase = Pim3 kinase (Homo sapiens (Human), UniProt Q86V86); test: Pim3 ATP depletion assay; format: biochemical; conditions: 40 μM ATP, 100 μM BAD peptide
Experimental: The activity of PIM3 is measured using a luciferase-luciferin based ATP detection reagent to quantify ATP depletion resulting from kinase-catalyzed phosphoryl transfer to a peptide substrate. Compounds to be tested are dissolved in 100% DMSO and directly distributed into white 384-well plates at 0.5 piper well. […] After 15 minutes, 10 μl of 80 μM ATP in assay buffer is added. Final assay concentrations are 5 nM PIM1, 40 μM ATP, 100 μM BAD peptide and 2.5% DMSO. The reaction is performed until approximately 50% of the ATP is depleted, then stopped by the addition of 20 μl KinaseGlo Plus (Promega Corporation) solution. The stopped reaction is incubated for 10 minutes and the remaining ATP detected via luminescence on the Victor2 (Perkin Elmer).

[1] = test system: KMS11 (human myeloma cell line); test: Cell Proliferation Assay; format: cell-based; conditions: KMS-11, 72 h, KMS11 cells, 3 days, Cell Titer-Glow
Experimental: KMS11 (human myeloma cell line), were cultured in IMDM supplemented with 10% FBS, sodium pyruvate and antibiotics. Cells were plated in the same medium at a density of 2000 cells per well into 96 well tissue culture plates, with outside wells vacant, on the day of assay. MM1.s (human myeloma cell line), were cultured in RPMI1640 supplemented with 10% FBS, sodium pyruvate and antibiotics. Cells were plated in the same medium at a density of 5000 cells per well into 96 well tissue culture plates, with outside wells vacant, on the day of assay.
Test compounds supplied in DMSO were diluted into DMSO at 500 times the desired final concentrations before dilution into culture media to 2 times final concentrations. Equal volumes of 2× compounds were added to the cells in 96 well plates and incubated at 37° C. for 3 days.
After 3 days plates were equilibrated to room temperature and equal volume of Cell Titer-Glow Reagent (Promega) was added to the culture wells. The plates were agitated briefly and luminescent signal was measured with luminometer.
Using the procedures for Cell Proliferation Assay described above, the EC50 concentration of compounds of the previous examples were determined in KMS11 cells as shown in the following table.

Chain of Pim1 kinase (P11309 whole entry): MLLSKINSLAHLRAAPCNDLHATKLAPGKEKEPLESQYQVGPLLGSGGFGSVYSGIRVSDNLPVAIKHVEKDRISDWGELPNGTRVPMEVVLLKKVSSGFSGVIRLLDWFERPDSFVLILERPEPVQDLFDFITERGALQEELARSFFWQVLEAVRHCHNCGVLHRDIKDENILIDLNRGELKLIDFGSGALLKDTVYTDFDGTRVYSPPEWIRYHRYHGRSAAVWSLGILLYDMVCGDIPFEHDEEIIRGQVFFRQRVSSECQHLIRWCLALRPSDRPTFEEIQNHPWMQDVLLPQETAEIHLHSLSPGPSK
Chain of Pim2 kinase (Q9P1W9 whole entry): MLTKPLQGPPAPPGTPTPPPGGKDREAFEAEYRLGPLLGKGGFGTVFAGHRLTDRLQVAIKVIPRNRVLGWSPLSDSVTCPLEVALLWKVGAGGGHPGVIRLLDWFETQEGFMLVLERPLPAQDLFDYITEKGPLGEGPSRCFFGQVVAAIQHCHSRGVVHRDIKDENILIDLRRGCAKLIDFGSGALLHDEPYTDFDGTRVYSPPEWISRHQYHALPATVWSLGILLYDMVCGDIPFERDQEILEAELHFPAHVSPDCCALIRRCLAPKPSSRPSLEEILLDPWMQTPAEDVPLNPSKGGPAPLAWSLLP

Structure (SMILES) | IC50 (Pim1 kinase) | IC50 (Pim2 kinase) | IC50 (Pim3 kinase) | EC50 [1]
CC1CCN(c2ccncc2NC(=O)c2csc(-c3c(F)cccc3F)n2)CC1N (centres unmarked) [Example 19, N-(4-(3-amino-4-methylpiperidin-1-yl)pyridin-3-yl)-2-(2,6-difluorophenyl)thiazole-4-carboxamide] | 1 nM | 8 nM | 5 nM | 930 nM
CCO[C@@H]1C[C@H](N)CN(c2ccncc2NC(=O)c2csc(-c3c(F)cccc3F)n2)C1 [Example 23, N-(4-((3S,5R)-3-amino-5-ethoxypiperidin-1-yl)pyridin-3-yl)-2-(2,6-difluorophenyl)thiazole-4-carboxamide] | 56 nM | 85 nM | 86 nM | 6540 nM
N[C@H]1C[C@@H](C(F)(F)F)CN(c2ccncc2NC(=O)c2csc(-c3c(F)cccc3F)n2)C1 [Example 27, N-(4-((3S,5R)-3-amino-5-(trifluoromethyl)piperidin-1-yl)pyridin-3-yl)-2-(2,6-difluorophenyl)thiazole-4-carboxamide] | 1 nM | 3 nM | 3 nM | 460 nM
C[C@H]1CN(c2ccncc2NC(=O)c2csc(-c3c(F)cccc3F)n2)C[C@@H](N)[C@@H]1O [Example 36, N-(4-((3R,4R,5S)-3-amino-4-hydroxy-5-methylpiperidin-1-yl)pyridin-3-yl)-2-(2,6-difluorophenyl)thiazole-4-carboxamide] | 1 nM | 3 nM | 3 nM | 560 nM
C[C@H]1C[C@@H](c2ccncc2NC(=O)c2csc(-c3c(F)cccc3F)n2)C[C@@H](N)[C@@H]1O [Example 41, N-(4-((1R,3R,4R,5S)-3-amino-4-hydroxy-5-methylcyclohexyl)pyridin-3-yl)-2-(2,6-difluorophenyl)thiazole-4-carboxamide (and enantiomer)] | 4 nM | 27 nM | 8 nM | > 10000 nM
